The record followed here is paper PMC3901310 (Analytical chemistry, 2013).

SMILES strings stand for the structures. Like-named read-outs stand apart in the source and are kept apart here.

What all share (format): binding
Experiment [1] has as its target T1, Ribonuclease A (RNaseA) (Bos taurus, UniProt P61823).
T1 sequence (P61823 27-150): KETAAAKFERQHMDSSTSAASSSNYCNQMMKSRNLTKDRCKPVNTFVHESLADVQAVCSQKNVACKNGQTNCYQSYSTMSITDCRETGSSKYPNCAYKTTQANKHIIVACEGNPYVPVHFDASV
The experiment is described as follows: reactive liquid sample DESI-MS of the native […] complex.

The target in experiment [2] is T1, Ribonuclease A (RNaseA). Described as above. The source holds these as a separate data set.
For experiment [3], the target named is T1, Ribonuclease A (RNaseA). The experiment is described as follows: reactive liquid sample DESI-MS of the native complex, ligand titration.
The target in the next experiment is lysozyme (Gallus gallus, UniProt P00698). The experiment is described as follows: reactive liquid sample DESI-MS of the native […] complex.
lysozyme, sequence (P00698 19-147): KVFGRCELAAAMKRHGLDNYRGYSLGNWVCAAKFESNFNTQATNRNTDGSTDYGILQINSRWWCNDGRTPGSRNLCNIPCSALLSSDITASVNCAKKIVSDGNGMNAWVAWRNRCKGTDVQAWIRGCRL

In the case of `Nc1ccn([C@@H]2O[C@H](CO)[C@@H](O)[C@H]2OP(=O)(O)O)c(=O)n1` [2′-CMP, cytidine 2′-monophosphate], the “reactive liquid sample DESI-MS of the native 1:1 complex ([holo]/[apo] ratio at” value on Ribonuclease A (RNaseA) [1] was 0.13±0.017.
As to `Nc1ccn([C@@H]2O[C@H](COP(=O)(O)OP(=O)(O)O)[C@@H](O)[C@H]2O)c(=O)n1` [CDP, cytidine 5′-diphosphate], the “reactive liquid sample DESI-MS of the native 1:1 complex ([holo]/[apo] ratio at” value at Ribonuclease A (RNaseA) [2] stood at 0.37±0.04.
The molecule `Nc1ccn([C@@H]2O[C@H](COP(=O)(O)OP(=O)(O)OP(=O)(O)O)[C@@H](O)[C@H]2O)c(=O)n1` [CTP, cytidine 5′-triphosphate] registered a dissociation constant Kd at Ribonuclease A (RNaseA) [3] of 1.91 µM.
With `CC(=O)N[C@H]1[C@H](O[C@H]2[C@H](O)[C@@H](NC(C)=O)C(O)O[C@@H]2CO)O[C@H](CO)[C@@H](O[C@@H]2O[C@H](CO)[C@@H](O)[C@H](O)[C@H]2NC(C)=O)[C@@H]1O` (stereo partly shown) [NAG3, N,N’,N’’-triacetylchitotriose], the Kd at lysozyme was 169 µM.
